Measured values taken from patent US6903219B2 (dated 2005).

| melting point [°C] | Structure (SMILES) |
| --- | --- |
| 168 to 169 | COc1ccnc(C(=O)N[C@H]2COC(=O)[C@H](Cc3ccccc3)[C@@H](OCC(C)C)[C@H](C)OC2=O)c1O |
| 150 to 152 | CCCO[C@H]1[C@H](C)OC(=O)[C@@H](NC(=O)c2nccc(OC)c2O)COC(=O)[C@@H]1Cc1ccccc1 |
| 50 to 52 | C=C(C)CO[C@H]1[C@H](C)OC(=O)[C@@H](NC(=O)c2nccc(OC)c2OCc2ccccc2)COC(=O)[C@@H]1Cc1ccccc1 |
| 102 to 104 | C=C(C)CO[C@H]1[C@H](C)OC(=O)[C@@H](NC(=O)c2nccc(OC)c2OCOC(C)=O)COC(=O)[C@@H]1Cc1ccccc1 |
